Assays:
Mus musculus [1] = species on record: Mus musculus; test: Effective dose against oxotremorine induced lacrimation; assay type: functional
Mus musculus [2] = test: Effective dose (p.o.) required to reverse ptosis induced by tetrabenazine in mouse; assay type: functional; details: po
Canis familiaris [3] = species on record: Canis familiaris; test: Inhibition of the response to phenethylamine was measured; assay type: functional; details: Canis lupus familiaris
Mus musculus [4] = species on record: Mus musculus; test: Effective dose against oxotremorine induced tremor; assay type: functional
Canis familiaris [5] = species on record: Canis familiaris; test: Potentiation of the response to norepinephrine was measured; assay type: functional; details: Canis lupus familiaris
Rattus norvegicus = test: Effective dose (p.o.) required to reverse ptosis induced by tetrabenazine in rat; assay type: functional; details: po
Monoamine oxidase = target: T1, Monoamine oxidase (Rattus norvegicus, UniProt P19643+P21396); test: In vitro inhibitory concentration against monoamine oxidase with 5-HT as substrate; assay type: protein assay; details: mouse
T1 sequence (P19643 whole entry): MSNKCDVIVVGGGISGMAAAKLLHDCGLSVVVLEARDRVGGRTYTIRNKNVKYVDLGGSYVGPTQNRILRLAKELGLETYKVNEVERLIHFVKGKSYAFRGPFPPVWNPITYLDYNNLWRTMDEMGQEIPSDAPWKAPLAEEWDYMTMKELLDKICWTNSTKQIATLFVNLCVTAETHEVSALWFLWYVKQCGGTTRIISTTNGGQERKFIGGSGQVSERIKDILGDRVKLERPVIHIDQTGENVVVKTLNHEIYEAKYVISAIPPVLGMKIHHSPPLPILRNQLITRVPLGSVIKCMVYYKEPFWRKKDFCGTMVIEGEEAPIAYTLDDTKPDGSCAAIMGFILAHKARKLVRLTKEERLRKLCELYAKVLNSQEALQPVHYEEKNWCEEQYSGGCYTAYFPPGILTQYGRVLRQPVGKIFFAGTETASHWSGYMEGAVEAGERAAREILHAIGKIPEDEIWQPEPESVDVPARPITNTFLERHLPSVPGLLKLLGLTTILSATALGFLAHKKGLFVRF
T1 sequence (P21396 whole entry): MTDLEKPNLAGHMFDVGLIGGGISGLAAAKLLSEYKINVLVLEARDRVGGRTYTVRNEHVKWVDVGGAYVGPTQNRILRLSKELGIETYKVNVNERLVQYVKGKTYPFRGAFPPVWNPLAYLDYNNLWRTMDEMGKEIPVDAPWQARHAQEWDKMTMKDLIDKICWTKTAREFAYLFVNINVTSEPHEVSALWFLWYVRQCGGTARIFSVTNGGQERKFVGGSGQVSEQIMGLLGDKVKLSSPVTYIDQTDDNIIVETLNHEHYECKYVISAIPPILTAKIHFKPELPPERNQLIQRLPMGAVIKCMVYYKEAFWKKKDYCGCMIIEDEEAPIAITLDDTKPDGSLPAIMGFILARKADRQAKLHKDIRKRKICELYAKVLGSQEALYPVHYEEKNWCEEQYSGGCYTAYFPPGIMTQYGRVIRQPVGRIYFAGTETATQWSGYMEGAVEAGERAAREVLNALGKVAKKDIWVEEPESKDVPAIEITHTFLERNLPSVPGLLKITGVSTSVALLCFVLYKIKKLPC

[6] = Acute toxicity (p.o.) after 24 hr was determined in mouse; assay type: organism-based; details: in vivo, po

| Compound | ED50 (Mus musculus [1]) [mg/kg] | ED50 (Mus musculus [2]) [mg/kg] | ED50 (Canis familiaris [3]) [mg/kg] | ED50 (Mus musculus [4]) [mg/kg] | ED50 (Canis familiaris [5]) [mg/kg] | ED50 (Rattus norvegicus) [mg/kg] | KI50 (Monoamine oxidase) [M l-1] | LD50 at 24 h [6] [mg/kg] |
| --- | --- | --- | --- | --- | --- | --- | --- | --- |
| CN(C)CCCN1c2ccccc2CCc2ccccc21 [IMIPRAMINE] | 130 | 1.3 | 1.5 | 70 | 3 | 4.12 | – | – |
| Cl.c1ccc2c(c1)C1c3ccccc3C2C2CNCCC12 (stereo not drawn) | > 243 | 0.41 | 1.2 | > 243 | 0.22 | 0.5 | > 0.001 | – |
| CN1CCC2C3c4ccccc4C(c4ccccc43)C2C1.Cl (stereo not drawn) | 36 | 1 | – | 100 | – | – | – | – |
| CN(C)CCC=C1c2ccccc2CCc2ccccc21 [AMITRIPTYLINE] | 27 | 1.3 | 1.1 | 21 | 1 | 12 | – | 177 |

— ChEMBL document CHEMBL1122795 (J Med Chem, 1984)
